{"source": "paper PMC5218480", "about": "(PLoS ONE, 2017)", "tested_on": "MV-4-11 cells", "assay": "Gene expression microarray analysis (Affymetrix PrimeView) and GSEA", "assay_type": "cell-based, human", "set-up": "RFU PODN (11730768_x_at) / Fold change /veh PODN (11730768_x_at) / RFU LINC00158 (11744669_a_at) / Fold change /veh LINC00158 (11744669_a_at) / RFU DUSP10 (11751237_a_at) / Fold change /veh DUSP10 (11751237_a_at) / RFU ID3 (11757404_x_at) / Fold change /veh ID3 (11757404_x_at) / RFU PLEKHG5 (11737974_s_at) / Fold change /veh PLEKHG5 (11737974_s_at) / RFU LRRC4B (11730491_at) / Fold change /veh LRRC4B (11730491_at) / RFU GIMAP4 (11747438_a_at) / Fold change /veh GIMAP4 (11747438_a_at) / RFU KRT8 (11758183_x_at) / Fold change /veh KRT8 (11758183_x_at) / RFU CNN1 (11734310_a_at) / Fold change /veh CNN1 (11734310_a_at) / RFU VPS37D (11726825_at) / Fold change /veh VPS37D (11726825_at) / RFU C10orf10 (11716522_x_at) / Fold change /veh C10orf10 (11716522_x_at) / RFU KIR2DL2 /// KIR2DL4 /// KIR2DL5A /// KIR2DL5B /// KIR2DS1 /// KIR2DS2 /// KIR2DS3 /// KIR2DS4 /// KIR3DL3 /// KIR3DL3 /// KIR3DS1 (11738374_at) / Fold change /veh KIR2DL2 /// KIR2DL4 /// KIR2DL5A /// KIR2DL5B /// KIR2DS1 /// KIR2DS2 /// KIR2DS3 /// KIR2DS4 /// KIR3DL3 /// KIR3DL3 /// KIR3DS1 (11738374_at) / RFU C1QL1 (11718748_at) / Fold change /veh C1QL1 (11718748_at) / RFU TMPRSS4 (11747572_a_at) / Fold change /veh TMPRSS4 (11747572_a_at) / RFU HAMP (11756126_x_at) / Fold change /veh HAMP (11756126_x_at) / RFU RNFT2 (11725882_a_at) / Fold change /veh RNFT2 (11725882_a_at) / RFU NR4A2 (11747474_a_at) / Fold change /veh NR4A2 (11747474_a_at) / RFU ABCC12 (11746883_a_at) / Fold change /veh ABCC12 (11746883_a_at) / RFU TMEM136 (11760407_x_at) / Fold change /veh TMEM136 (11760407_x_at) / RFU CLDN22 /// WWC2 (11732394_at) / Fold change /veh CLDN22 /// WWC2 (11732394_at) / RFU HLA-DPB1 (11760878_x_at) / Fold change /veh HLA-DPB1 (11760878_x_at) / RFU SPINT1 (11716480_a_at) / Fold change /veh SPINT1 (11716480_a_at) / RFU GAP43 (11754022_s_at) / Fold change /veh GAP43 (11754022_s_at) / RFU A4GNT (11735810_at) / Fold change /veh A4GNT (11735810_at) / RFU PRB3 (11715151_x_at) / Fold change /veh PRB3 (11715151_x_at) / RFU TUBB4B (11761932_at) / Fold change /veh TUBB4B (11761932_at) / RFU CAPN14 (11732068_a_at) / Fold change /veh CAPN14 (11732068_a_at) / RFU TMCC2 (11721928_a_at) / Fold change /veh TMCC2 (11721928_a_at) / RFU IRGQ (11745062_a_at) / Fold change /veh IRGQ (11745062_a_at) / RFU FAM174B (11720279_a_at) / Fold change /veh FAM174B (11720279_a_at) / RFU TMPRSS4 (11748680_a_at) / Fold change /veh TMPRSS4 (11748680_a_at) / RFU FAM212B (11763350_a_at) / Fold change /veh FAM212B (11763350_a_at) / RFU PLEKHG5 (11743358_a_at) / Fold change /veh PLEKHG5 (11743358_a_at) / RFU ZSCAN30 (11745921_a_at) / Fold change /veh ZSCAN30 (11745921_a_at) / RFU CMKLR1 (11741424_a_at) / Fold change /veh CMKLR1 (11741424_a_at) / RFU LOC101060620 /// MAPK8IP1 (11723275_at) / Fold change /veh LOC101060620 /// MAPK8IP1 (11723275_at) / RFU SPTSSB (11747773_x_at) / Fold change /veh SPTSSB (11747773_x_at) / RFU PRSS12 (11739890_at) / Fold change /veh PRSS12 (11739890_at) / RFU BIN1 (11741810_x_at) / Fold change /veh BIN1 (11741810_x_at) / RFU WNT11 (11732464_a_at) / Fold change /veh WNT11 (11732464_a_at) / RFU C10orf10 (11716521_a_at) / Fold change /veh C10orf10 (11716521_a_at) / RFU C5orf56 (11738089_at) / Fold change /veh C5orf56 (11738089_at) / RFU CYB561 (11721691_x_at) / Fold change /veh CYB561 (11721691_x_at) / RFU ANKRD19P (11752326_a_at) / Fold change /veh ANKRD19P (11752326_a_at) / RFU OR2T12 /// OR2T33 /// OR2T8 (11738714_s_at) / Fold change /veh OR2T12 /// OR2T33 /// OR2T8 (11738714_s_at) / RFU VCAN (11748164_a_at) / Fold change /veh VCAN (11748164_a_at) / RFU JSRP1 (11732532_at) / Fold change /veh JSRP1 (11732532_at) / RFU KRTAP10-11 (11738290_x_at) / Fold change /veh KRTAP10-11 (11738290_x_at) / RFU MYO3A (11730013_a_at) / Fold change /veh MYO3A (11730013_a_at) / RFU EBF3 (11725865_a_at) / Fold change /veh EBF3 (11725865_a_at) / RFU CAMK2N1 (11719241_x_at) / Fold change /veh CAMK2N1 (11719241_x_at) / RFU C5orf56 (11738088_a_at) / Fold change /veh C5orf56 (11738088_a_at) / RFU OLFML3 (11715873_a_at) / Fold change /veh OLFML3 (11715873_a_at) / RFU LOC100653217 /// NTM (11731650_a_at) / Fold change /veh LOC100653217 /// NTM (11731650_a_at) / RFU MAPK11 (11762145_a_at) / Fold change /veh MAPK11 (11762145_a_at) / RFU FIZ1 (11724087_x_at) / Fold change /veh FIZ1 (11724087_x_at) / RFU OASL (11726364_x_at) / Fold change /veh OASL (11726364_x_at) / RFU SOX15 (11748057_x_at) / Fold change /veh SOX15 (11748057_x_at) / RFU CD79A (11719716_a_at) / Fold change /veh CD79A (11719716_a_at) / RFU HIST1H1D (11736915_at) / Fold change /veh HIST1H1D (11736915_at) / RFU CASKIN2 (11723855_a_at) / Fold change /veh CASKIN2 (11723855_a_at) / RFU LOC730098 (11760151_x_at) / Fold change /veh LOC730098 (11760151_x_at) / RFU OR4N2 (11742367_at) / Fold change /veh OR4N2 (11742367_at) / RFU PRRT2 (11749266_a_at) / Fold change /veh PRRT2 (11749266_a_at) / RFU SNX32 (11753110_a_at) / Fold change /veh SNX32 (11753110_a_at) / RFU CDHR5 (11726645_a_at) / Fold change /veh CDHR5 (11726645_a_at) / RFU RCAN1 (11760418_a_at) / Fold change /veh RCAN1 (11760418_a_at) / RFU FAM167A (11723789_a_at) / Fold change /veh FAM167A (11723789_a_at) / RFU FAM26E (11764081_at) / Fold change /veh FAM26E (11764081_at) / RFU ISYNA1 (11749810_s_at) / Fold change /veh ISYNA1 (11749810_s_at) / RFU ACY1 (11761880_at) / Fold change /veh ACY1 (11761880_at) / RFU 11764098_at / Fold change /veh 11764098_at / RFU SAMD14 (11745864_x_at) / Fold change /veh SAMD14 (11745864_x_at) / RFU NPB (11741838_a_at) / Fold change /veh NPB (11741838_a_at) / RFU TMPRSS6 (11731388_a_at) / Fold change /veh TMPRSS6 (11731388_a_at) / RFU KRTAP10-2 (11738614_at) / Fold change /veh KRTAP10-2 (11738614_at) / RFU ARHGAP8 /// PRR5-ARHGAP8 (11727945_x_at) / Fold change /veh ARHGAP8 /// PRR5-ARHGAP8 (11727945_x_at) / RFU KRTAP5-7 /// NADSYN1 (11734609_at) / Fold change /veh KRTAP5-7 /// NADSYN1 (11734609_at) / RFU RASL12 (11751679_a_at) / Fold change /veh RASL12 (11751679_a_at) / RFU CDKN2B (11736163_a_at) / Fold change /veh CDKN2B (11736163_a_at) / RFU PRF1 (11729649_at) / Fold change /veh PRF1 (11729649_at) / RFU, ZNF638 /// ZNF638-IT1 / Fold change vs veh, ZNF638 /// ZNF638-IT1 / RFU, PANK3 / Fold change vs veh, PANK3 / RFU, SH3YL1 / Fold change vs veh, SH3YL1 / RFU, ZEB2 / Fold change vs veh, ZEB2 / RFU, NRIP1 / Fold change vs veh, NRIP1 / RFU, PTTG1IP / Fold change vs veh, PTTG1IP / RFU, CAPN2 / Fold change vs veh, CAPN2 / RFU, MED14 / Fold change vs veh, MED14 / RFU, SNORA58 / Fold change vs veh, SNORA58 / RFU, C1orf63 / Fold change vs veh, C1orf63 / RFU, LRRFIP1 / Fold change vs veh, LRRFIP1 / RFU, NDUFAF7 / Fold change vs veh, NDUFAF7 / RFU, SLC12A2 / Fold change vs veh, SLC12A2 / RFU, IBTK / Fold change vs veh, IBTK / RFU, ESF1 / Fold change vs veh, ESF1 / Fold change vs veh, TMEM50B / RFU, TAOK1 / Fold change vs veh, TAOK1 / RFU, ACBD3 / Fold change vs veh, ACBD3 / RFU, TMA16 / Fold change vs veh, TMA16 / RFU, RWDD3 / Fold change vs veh, RWDD3 / RFU, BCAT1 / Fold change vs veh, BCAT1 / RFU, EDEM3 / Fold change vs veh, EDEM3 / RFU, TMEM33 / Fold change vs veh, TMEM33 / RFU, WDR75 / Fold change vs veh, WDR75 / RFU, AHCTF1 / Fold change vs veh, AHCTF1 / RFU, TFRC / Fold change vs veh, TFRC / RFU, ZDHHC17 / Fold change vs veh, ZDHHC17 / RFU, NOM1 / Fold change vs veh, NOM1 / RFU, ARL8B / Fold change vs veh, ARL8B / RFU, ZBTB11 / Fold change vs veh, ZBTB11 / RFU, TAMM41 / Fold change vs veh, TAMM41 / RFU, KIAA1704 /// LOC100996395 / Fold change vs veh, KIAA1704 /// LOC100996395 / RFU, ING1 / Fold change vs veh, ING1 / RFU, TRMT61B / Fold change vs veh, TRMT61B / RFU, FUBP3 / Fold change vs veh, FUBP3 / RFU, TP53 / Fold change vs veh, TP53 / RFU, TNKS2 / Fold change vs veh, TNKS2 / RFU, ZFP14 / Fold change vs veh, ZFP14 / RFU, ACTR2 / Fold change vs veh, ACTR2 / RFU, PPP3R1 / Fold change vs veh, PPP3R1 / RFU, PIK3R1 / Fold change vs veh, PIK3R1 / RFU, HNRNPA1 / Fold change vs veh, HNRNPA1 / RFU, RNF170 / Fold change vs veh, RNF170 / RFU, ZNF28 / Fold change vs veh, ZNF28 / RFU, RNGTT / Fold change vs veh, RNGTT / RFU, OGT / Fold change vs veh, OGT / RFU, BRD1 / Fold change vs veh, BRD1 / RFU, MARS / Fold change vs veh, MARS / RFU, ZNF655 / Fold change vs veh, ZNF655 / RFU, FAHD1 / Fold change vs veh, FAHD1 / RFU, BDP1 / Fold change vs veh, BDP1 / RFU, LRRCC1 / Fold change vs veh, LRRCC1 / RFU, ARID1A / Fold change vs veh, ARID1A / RFU, ZNF146 / Fold change vs veh, ZNF146 / RFU, ZNF330 / Fold change vs veh, ZNF330 / RFU, GPN3 / Fold change vs veh, GPN3 / RFU, C9orf123 / Fold change vs veh, C9orf123 / RFU, N4BP2L2 / Fold change vs veh, N4BP2L2 / RFU, ARFIP1 / Fold change vs veh, ARFIP1 / RFU, FAM179B / Fold change vs veh, FAM179B / RFU, BCL10 / Fold change vs veh, BCL10 / RFU, UHRF1BP1L / Fold change vs veh, UHRF1BP1L / RFU, BET1 / Fold change vs veh, BET1 / RFU, CNOT2 / Fold change vs veh, CNOT2 / RFU, ZNF268 / Fold change vs veh, ZNF268 / Fold change vs veh, ZNF507 / RFU, DGCR2 / Fold change vs veh, DGCR2 / RFU, WDSUB1 / Fold change vs veh, WDSUB1 / Fold change vs veh, HSP90B1 /// MIR3652 / RFU, ADSS / Fold change vs veh, ADSS / RFU, GK / Fold change vs veh, GK / RFU, ZNF148 / Fold change vs veh, ZNF148 / RFU, TAF9 / Fold change vs veh, TAF9 / RFU, SLC1A5 / Fold change vs veh, SLC1A5 / RFU, SLMO2 / Fold change vs veh, SLMO2 / RFU, ABCC4 / Fold change vs veh, ABCC4 / RFU, LOC101060439 /// RAP1B / Fold change vs veh, LOC101060439 /// RAP1B / RFU, RFX7 / Fold change vs veh, RFX7 / RFU, GTPBP10 / Fold change vs veh, GTPBP10 / RFU, CNEP1R1 / Fold change vs veh, CNEP1R1 / RFU, BIVM-ERCC5 /// ERCC5 / Fold change vs veh, BIVM-ERCC5 /// ERCC5 / RFU, ILF3 / Fold change vs veh, ILF3 / RFU 11762660_at / Fold change /veh 11762660_at / RFU VCAN (11757783_s_at) / Fold change /veh VCAN (11757783_s_at) / RFU DDX43 (11728927_at) / Fold change /veh DDX43 (11728927_at) / RFU KRT8 (11758188_x_at) / Fold change /veh KRT8 (11758188_x_at) / RFU NKD1 (11759106_at) / Fold change /veh NKD1 (11759106_at) / RFU SRD5A1 (11742802_a_at) / Fold change /veh SRD5A1 (11742802_a_at) / RFU TPSAB1 /// TPSB2 (11721975_s_at) / Fold change /veh TPSAB1 /// TPSB2 (11721975_s_at) / RFU GSTM3 (11746129_a_at) / Fold change /veh GSTM3 (11746129_a_at) / RFU IL23R (11737362_x_at) / Fold change /veh IL23R (11737362_x_at) / RFU TMEM51 (11727254_a_at) / Fold change /veh TMEM51 (11727254_a_at) / RFU PIWIL2 (11732686_x_at) / Fold change /veh PIWIL2 (11732686_x_at) / RFU ORM1 (11744905_x_at) / Fold change /veh ORM1 (11744905_x_at) / RFU CCDC152 (11743942_at) / Fold change /veh CCDC152 (11743942_at) / RFU ECM1 (11717891_a_at) / Fold change /veh ECM1 (11717891_a_at) / RFU IL23R (11748794_a_at) / Fold change /veh IL23R (11748794_a_at) / RFU TNFAIP8L3 (11732012_x_at) / Fold change /veh TNFAIP8L3 (11732012_x_at) / RFU MBOAT4 (11741988_at) / Fold change /veh MBOAT4 (11741988_at) / RFU 11764193_at / Fold change /veh 11764193_at / RFU TMEM53 (11763286_at) / Fold change /veh TMEM53 (11763286_at) / RFU MAGEB2 (11727129_at) / Fold change /veh MAGEB2 (11727129_at) / RFU TMEM200A (11744735_a_at) / Fold change /veh TMEM200A (11744735_a_at) / RFU CCDC152 (11751479_a_at) / Fold change /veh CCDC152 (11751479_a_at) / RFU FAM211A (11726209_a_at) / Fold change /veh FAM211A (11726209_a_at) / RFU RGS16 (11746705_a_at) / Fold change /veh RGS16 (11746705_a_at) / RFU VCAN (11755009_s_at) / Fold change /veh VCAN (11755009_s_at) / RFU RHOB (11743442_s_at) / Fold change /veh RHOB (11743442_s_at) / RFU RGS16 (11720943_a_at) / Fold change /veh RGS16 (11720943_a_at) / RFU RGS16 (11720944_at) / Fold change /veh RGS16 (11720944_at) / RFU, VPS4B / Fold change vs veh, VPS4B / RFU, CREB1 / Fold change vs veh, CREB1 / RFU, DNAJC13 / Fold change vs veh, DNAJC13 / RFU, GNAQ / Fold change vs veh, GNAQ / RFU, CDK5R1 / Fold change vs veh, CDK5R1 / RFU, ZRANB3 / Fold change vs veh, ZRANB3 / RFU, CUL4A / Fold change vs veh, CUL4A / RFU, CCNY / Fold change vs veh, CCNY / RFU, UFL1 / Fold change vs veh, UFL1 / RFU, COG3 / Fold change vs veh, COG3 / RFU, DIAPH2 / Fold change vs veh, DIAPH2 / RFU, SKA2 / Fold change vs veh, SKA2 / RFU, AFF3 / Fold change vs veh, AFF3 / RFU, LMF1 / Fold change vs veh, LMF1 / RFU, IPO11 / Fold change vs veh, IPO11 / RFU, DFFB / Fold change vs veh, DFFB / RFU, FOXP1 / Fold change vs veh, FOXP1 / RFU, CARD8 / Fold change vs veh, CARD8 / RFU, STRN3 / Fold change vs veh, STRN3 / RFU, ADK / Fold change vs veh, ADK / RFU, RASSF2 / Fold change vs veh, RASSF2 / RFU, WIPF1 / Fold change vs veh, WIPF1 / RFU, LARP1B / Fold change vs veh, LARP1B / RFU, RASA1 / Fold change vs veh, RASA1 / RFU, RB1 / Fold change vs veh, RB1 / RFU, PPFIA1 / Fold change vs veh, PPFIA1 / RFU, MAT2A / Fold change vs veh, MAT2A / RFU, CCT5 / Fold change vs veh, CCT5 / RFU, WDR92 / Fold change vs veh, WDR92 / RFU, CUX1 / Fold change vs veh, CUX1 / RFU, TTC7A / Fold change vs veh, TTC7A / RFU, TMEM135 / Fold change vs veh, TMEM135 / RFU, DEPTOR / Fold change vs veh, DEPTOR / RFU, CPM / Fold change vs veh, CPM / RFU, DNAJB6 / Fold change vs veh, DNAJB6 / RFU, CACNA2D3 / Fold change vs veh, CACNA2D3 / RFU, DTX4 / Fold change vs veh, DTX4 / RFU, TFCP2 / Fold change vs veh, TFCP2 / RFU, GMCL1 /// GMCL1P1 / Fold change vs veh, GMCL1 /// GMCL1P1 / RFU, AEBP2 / Fold change vs veh, AEBP2 / RFU, SNHG1 /// SNORD22 /// SNORD25 /// SNORD26 /// SNORD27 /// SNORD28 /// SNORD29 /// SNORD31 / Fold change vs veh, SNHG1 /// SNORD22 /// SNORD25 /// SNORD26 /// SNORD27 /// SNORD28 /// SNORD29 /// SNORD31 / Fold change (Aza/veh), C12orf56 (ProbeSet 11735607_a_at) / Fold change (ACY-1035/veh), C12orf56 (ProbeSet 11735607_a_at) / Fold change (Aza/veh), FGFR1OP (ProbeSet 11751329_s_at) / Fold change (ACY-1035/veh), FGFR1OP (ProbeSet 11751329_s_at) / Fold change (Aza/veh), VPS36 (ProbeSet 11739960_a_at) / Fold change (ACY-1035/veh), VPS36 (ProbeSet 11739960_a_at) / RFU SYPL1 (11715823_x_at) / Fold change /veh SYPL1 (11715823_x_at) / RFU IGFBP7 (11715501_s_at) / Fold change /veh IGFBP7 (11715501_s_at) / RFU REEP3 (11722064_at) / Fold change /veh REEP3 (11722064_at) / RFU IGLL1 (11728026_x_at) / Fold change /veh IGLL1 (11728026_x_at): dose or concentration left out as unconfirmed", "conditions": "MV-4-11 cells, 48 hours", "data": [{"compound": "Nc1ncn([C@@H]2O[C@H](CO)[C@@H](O)[C@H]2O)c(=O)n1", "note": "[azacitidine]", "values": [{"measurement": "Fold change /veh 11762660_at", "result": 1.27}]}]}
